# Laboratory results as given in PMC5877736, “Functional Characteristics, Electrophysiological and Antennal Immunolocalization of General Odorant-Binding Protein 2 in Tea Geometrid, Ectropis obliqua” (International Journal of Molecular Sciences, 2018).
# Read-outs that look alike come from different tables or passages of the source.
# Legend:
# E. obliqua antennae = assay: Electroantennogram (EAG) of male and female antennae; parameters: species or system Ectropis obliqua; conditions: volatiles at 10 mg/mL (Figure 7)
# Experimental: To characterize the relationship between ligand-binding and E. obliqua olfactory activity, seven ligands with strong EoblGOBP2 binding affinities were selected for EAG measurements.
# The antennal olfactory responses of E. obliqua to seven candidate tea volatiles were tested by the EAG technique. Prior to EAG experiments, all test ligands were dissolved into liquid paraffin at a concentration of 0.1 (v/v). The fresh […] antenna were excised from its base, and immediately attached onto the fork electrode holder using non-drying clay (Spectra 360 Electrode Gel, Parker Laboratories Inc., Orange, NJ, USA). […] All antennae should be tested in three replicates.
# The odor stimulus was performed in the pulse while recording the electroantennogram of antennae. (E)-3-hexenol and liquid paraffin were chosen as the positive and negative control CK, respectively. All antennae were stimulated with five samples, and each tested sample was repeated six times. EAG signals were recorded and analyzed with EAG-Pro software (Syntech, Hilversum, NT). The relative values of EAG response were calculated using the following formula: Sr = (Sc − CKm)/(Rm − CKm)·100% [52]. Where Sr is the relative value of the EAG response, Sc is the EAG response for a certain odor, CKm is the mean of the EAG responses of liquid paraffin before and after the test odor stimulus, and Rm is the mean of the EAG response of (Z)-3-hexenol.
# EoblGOBP2 = EoblGOBP2 (Ectropis obliqua, UniProt C0JAP5); assay: Competitive fluorescence ligand-binding assay with 1-NPN as fluorescent probe; conditions: for binding to EoblGOBP2 (in words): competitive binding with 1-NPN
# Sequence of EoblGOBP2 (C0JAP5 entry or part of it): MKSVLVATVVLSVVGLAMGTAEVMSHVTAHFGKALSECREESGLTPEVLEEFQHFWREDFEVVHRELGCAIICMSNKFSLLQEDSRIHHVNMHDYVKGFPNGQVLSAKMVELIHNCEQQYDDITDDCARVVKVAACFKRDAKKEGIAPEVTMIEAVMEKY
# Experimental: For EoblGOBP2 binding assays, 1-NPN was used as a competitive fluorescent reporter. When 1-NPN was added dropwise to the protein solution, the maximum emission peak at 340 nm was shifted to about 420 nm. The dissociation constant of 1-NPN to EoblGOBP2 was approximately 2.31 μM calculated using the Scatchard equation (Figure 5A). Using 1-NPN as a fluorescent probe, the binding affinities of EoblGOBP2 to 19 ligands were measured using competitive binding assays. IC50 values and dissociation constants (KD) were then calculated (Table 1).
# Ligand-binding assays were performed on a RF-5031pc Fluorescence Spectrophotometer (Shimadzu, Tokyo, Japan). The excitation and emission slits were set to 10 nm. Fluorescence spectra were recorded from 300 to 550 nm with an excitation wavelength of 282 nm. The recombinant EoblGOBP2 protein solutions (1.5 μM), served in 1 cm light path quartz cuvette, were titrated with 1 mM 1-NPN solution in methanol. The fluorescence intensity at the maximum emission wavelength of about 328 nm was linearized using the Scatchard equation [46], then the dissociation constants for 1-NPN (K1-NPN) was calculated.
# Nineteen fresh tea leaf volatiles were used as test ligands. For the binding affinities of the ligands to EoblGOBP2, a mixture of 1-NPN and EoblGOBP2 protein was titrated with 1 μM ligands dissolved in methanol. The IC50 values were obtained by data linearization, and the dissociation constants (KD) were calculated using the following equation: KD = [IC50]/(1 + [1-NPN]/K1-NPN), where [1-NPN] is the free concentration of 1-NPN, and K1-NPN is the dissociation constant of the protein/1-NPN complex.
# [1] = calculated from IC50: KD = [IC50]/(1 + [1-NPN]/K1-NPN), protein 1.5 μM, read-out: KD Dissociation Constant
# [2] = ligand concentration halving 1-NPN fluorescence, protein 1.5 μM
# [3] = class symbol, protein 1.5 μM, read-out: KD Dissociation Constant
"IC50 (EoblGOBP2; class symbol, protein 1.5 μM) [µM]",Kd (EoblGOBP2; [3]) [µM],SMILES,Kd (EoblGOBP2; [1]) [µM],IC50 (EoblGOBP2; [2]) [µM],also measured
–,–,CCCCOC(=O)c1ccccc1C(=O)OCCCC [Dibutyl phthalate],4.35,19.4,EAG response in male and female antennae (in words) (E. obliqua antennae): weak responses
–,–,"c1ccc(Nc2cccc3ccccc23)cc1 [1-NPN, N-phenyl-1-naphthylamine, reference compound]",–,–,"Kd (EoblGOBP2; direct titration, Scatchard equation, read-out: dissociation constant of 1-NPN to EoblGOBP2): ~2.31 µM"
> 50,> 11.2,CC(C)=CCC/C(C)=C\CO [Nerol],–,–,–
–,–,COC(=O)c1ccccc1O [Methyl salicylate],43.5,194,"EAG response, male versus female antennae (E. obliqua antennae): stronger in male antennae than in female antennae"
> 50,> 11.2,CCCCCCO [n-hexanol],–,–,–
–,–,CC(=O)c1ccccc1 [Acetophenone],13,57.9,"EAG response, male versus female antennae (E. obliqua antennae): stronger in male antennae than in female antennae"
> 50,> 11.2,"C1COCO1 [1,3-dioxolane]",–,–,binding to EoblGOBP2 (in words) (EoblGOBP2): could not bind
> 50,> 11.2,CC/C=C/C=O [(E)-2-pentenal],–,–,–
> 50,> 11.2,CCCCCO [n-pentanol],–,–,–
> 50,> 11.2,C=CC(O)CC (stereo not drawn) [1-penten-3-ol],–,–,–
–,–,CC(=O)/C=C/C1=C(C)CCCC1(C)C [β-ionone],12.6,56.1,EAG response in male and female antennae (in words) (E. obliqua antennae): weak responses
–,–,CCCCCCC/C=C/C=O [(E)-2-decenal],20.7,92.4,"EAG response, male versus female antennae (E. obliqua antennae): stronger in male antennae than in female antennae"
> 50,> 11.2,CCCCCCCCCCCCCCCC(=O)O [Hexadecanoic acid],–,–,binding to EoblGOBP2 (in words) (EoblGOBP2): could not bind
–,–,O=Cc1ccccc1 [Benzaldehyde],44.2,197,"EAG response, male versus female antennae (E. obliqua antennae): stronger in male antennae than in female antennae"
–,–,CCC/C=C/C=O [(E)-2-hexenal],32.2,143,"EAG response, male versus female antennae (E. obliqua antennae): stronger in male antennae than in female antennae"

SMILES,"IC50 (EoblGOBP2; class symbol, protein 1.5 μM) [µM]",Kd (EoblGOBP2; [3]) [µM],Kd (EoblGOBP2; [1]) [µM],IC50 (EoblGOBP2; [2]) [µM],also measured
OCc1ccccc1 [Benzyl alcohol],> 50,> 11.2,–,–,–
CC/C=C\CCO [(Z)-3-hexenol],> 50,> 11.2,–,–,–
CCOP(=O)(OCC)OCC [Triethyl phosphate],> 50,> 11.2,–,–,–
CC1=CC[C@@H](C(C)(C)O)CC1 [α-terpineol],> 50,> 11.2,–,–,–
C=CC(C)(O)CCC=C(C)C (stereo not drawn) [Linalool],> 50,> 11.2,–,–,–
